US20160346295A1, “Selective Estrogen Receptor Modulators With Short Half-Lives and Uses Thereof” (REPROS THERAPEUTICS INC., priority 2012, published 2016)

Columns and labels:
[1] = blood plasma; cited from earlier work
[2] = system: adult human males with secondary hypogonadism; experiment: One year open label extension study, long term oral trans-clomiphene 12.5 mg daily
[3] = human, in vivo, po
Protocol: A clinical study to estimate the pharmacokinetic (PK) profile of enclomiphene (trans-clomiphene) following single-dose and steady-state doses administered orally. 52 adult males between 18 and 75 years of age with total serum testosterone level<250 ng/dl or between 250 to 300 ng/dl and FSH/LH levels within the normal range, were randomly assigned to one of the following five treatment groups: (i) 12.5 mg enclomiphene/day (ii) 25 mg enclomiphene/day (iii) 50 mg enclomiphene/day (trans-clomiphene) (iv) Androgel® (1% topical testosterone applied daily) or (v) placebo. Enclomiphene citrate was provided as 12.5 mg capsules and orally administered once (12.5 mg arm) twice (25 mg arm) or four times (50 mg arm) per day for 14 consecutive days. Single-dose and steady-state PK assessments were preformed in a subset of these males following the first (Day 1) and last (Day 14) dose. […] Pre-dose plasma enclomiphene concentrations were also measured on Day 11 using a single blood sample. […] PK parameters were calculated using noncompartmental methods for subjects randomized to enclomiphene. The accumulation ratio, defined as the AUC0-24 on Day 14, divided by the AUC0-24 value on Day 1 was calculated.
The accumulation index for each enclomiphene dose group was calculated based on the arithmetic mean of the individual ratio of AUC(0-24) on Day 14 divided by AUC(0-24) on Day 1. […]

[4] = system: rodent, baboon, rabbit and dog models; experiment: Animal safety pharmacology studies; assay type: in vivo
[5] = majority or all of the timepoints

COc1ccc(-c2sc3cc(O)ccc3c2Oc2ccc(OCCN3CCCCC3)cc2)cc1 [Arzoxifene]
Half-Life [1]: 30 h

CCN(CC)CCOc1ccc(C(=C(Cl)c2ccccc2)c2ccccc2)cc1 [Clomid]
Half-Life [1]: 120 to 170 h

CC/C(=C(/c1ccc(OCCN(C)C)cc1)c1cccc(O)c1)c1ccccc1 [Droloxifene, E-1-[4′-(2-dimethylaminoethoxy)phenyl]-1-(3′-hydroxyphenyl)-2-phenyl-1-butene]
Half-Life [1]: 24 h

CCN(CC)CCOc1ccc(/C(=C(\Cl)c2ccccc2)c2ccccc2)cc1 [Enclomiphene, trans-clomiphene]
other questionnaires of sexual function (DISF-SR II (M), MSDS) ([2]; 12.5 mg daily oral): no concomitantly significant changes
overall mean increases in total serum testosterone from baseline to 1 year ([2]; 12.5 mg daily oral): statistically significant
subjects who experienced serious adverse effects (SAEs) ([2]; 12.5 mg daily oral up to one year): 5%
subjects who experienced at least one adverse event considered related to the study drug ([2]; 19/101 subjects): 18.8%
subjects with mean total serum testosterone levels within the normal reference range ([2]; at 1 year, normal range 300-1040 ng/dl, 12.5 mg daily oral): 62.5%
discontinuation due to a reduction in visual acuity ([2]; during the study): No subjects were discontinued
hematology, blood chemistry, urinalysis, vital signs, physical exam, PSA values, ECG readings ([2]; during the study): no clinically relevant changes
subjects discontinued from the study due to AEs ([2]; during the study): Nine
subjects who experienced at least one adverse event ([2]; during the study): 51.5%
subjects with events considered severe ([2]; during the study): nine
libido, libido component of IIEF questionnaire ([2]; from baseline at months 4, 6 and 12): Statistically significant improvements
DHT/testosterone ratio change [2, 5]: Statistically significant increases
FSH change [2, 5]: Statistically significant increases
LH change [2, 5]: Statistically significant increases
dihydrotestosterone (DHT) change [2, 5]: Statistically significant increases
estradiol change [2, 5]: Statistically significant increases
high-density lipoprotein cholesterol (HDL-C) change from baseline [2, 5]: Statistically significant decreases
prolactin change [2, 5]: statistically significant decreases
sex hormone binding globulin (SHBG) change [2, 5]: Statistically significant increases
total cholesterol (TC) change from baseline [2, 5]: Statistically significant decreases
triglycerides change from baseline [2, 5]: Statistically significant decreases
testicular size, significance of increase ([2]; orchidometer): statistically significant increase was observed at Month 6 only
half life of enclomiphene based on the PK data obtained [3]: ~10.5 h
adverse effects in the central nervous, respiratory or cardiovascular systems [4]: no adverse effects

CC/C(=C(\c1ccc(I)cc1)c1ccc(OCCN2CCCC2)cc1)c1ccccc1 [Idoxifene]
Half-Life [1]: 3 weeks

Oc1ccc2c(c1)CC[C@H](c1ccccc1)[C@@H]2c1ccc(OCCN2CCCC2)cc1 [Lasofoxifene]
Half-Life [1]: 140 h

COc1ccc2c(c1)OC(C)(C)[C@@H](c1ccccc1)[C@@H]2c1ccc(OCCN2CCCC2)cc1 [Levormeloxifene, (−)-3R,4R-trans-7-methoxy-2,2-dimethyl-3-phenyl-4-{4-[2-(pyrrolidin-1-yl)ethoxy]phenyl} chromane]
Half-Life [1]: 24 h

COc1ccc2c(c1)OC(C)(C)C(c1ccccc1)C2c1ccc(OCCN2CCCC2)cc1 (stereo not shown) [Ormeloxifene]
Half-Life [1]: 170 h

OCCOc1ccc(/C(=C(/CCCl)c2ccccc2)c2ccccc2)cc1 [Ospemifene]
Half-Life [1]: 26 h

O=C(c1ccc(OCCN2CCCCC2)cc1)c1c(-c2ccc(O)cc2)sc2cc(O)ccc12 [Raloxifene, 6-hydroxy-2(4-hydroxyphenyl)-3-[4-(2-piperdinoethoxy)benzoyl]benzo[b]thiophene]
Half-Life [1]: 27 h

CC/C(=C(\c1ccccc1)c1ccc(OCCN(C)C)cc1)c1ccccc1 [Tamoxifen]
Half-Life [1]: 120 to 170 h
